# Reference: paper PMC9739815, “Akt/mTOR Targeting Activity of Resveratrol Derivatives in Non-Small Lung Cancer” (Molecules, 2022)
# Experiments:
# [1] = tested on: A549 cells; assay: MTT cell viability assay, A549 cells; assay type: cell-based; conditions: Homo sapiens, 24 h, 0–200 µM, read-out: IC50 ± SEM of NSCLC cells, A549
# Description: (§1) NSCLC cells were cultured overnight and treated with various concentrations (0–200 µM) of resveratrol derivatives (RD1-RD5) and resveratrol for 24 h, and then cell viability was analyzed by the 3-(4, 5-dimethylthiazolyl-2)-2, 5-diphenyltetrazolium bromide (MTT) assay to evaluate the percentage of cell viability. All of the data were calculated on the basis of the results of three replicated samples. […] The difference of the structure at C-4 was that the hydroxyl group of RD2 was modified to the methoxy group of RD3 and at C-3, the methoxy group of RD2 was changed to the hydroxyl group of RD3. […] Furthermore, resveratrol decreased cell viability in NSCLC cells (A549, H23, and H460) with the IC50 at more than 200 µM which was the same RD3 (Figure 2a–d). This different action on cancer cells as a result of chemical structure modification has provided an insight for the structure–activity relationship that may facilitate the further development of the potent compound from the lead structure of resveratrol derivatives. Cell viability was investigated by MTT colorimetric assay. All cell lines were cultured at the density of 1 × 10^4 cells per well in a 96-well tissue culture plate and incubated in an incubator. After that, cells were treated with various concentrations of RD1-RD5 for 24 h at 37 °C and analyzed by the MTT assay according to the manufacturer’s protocol (Sigma Chemical, St. Louis, MO, USA). In calculating the cell viability by a microplate reader (Anthros, Durham, NC, USA), the measured absorbance of treated cells were divided by the value of untreated cells and are reported as a percentage.
# [2] = tested on: H460 cells; assay: MTT cell viability assay, H460 cells; assay type: cell-based; conditions: Homo sapiens, NCI-H460, 24 h, 0–200 µM, read-out: IC50 ± SEM of NSCLC cells, H460
# Description: as §1
# [3] = tested on: H23 cells; assay: MTT cell viability assay, H23 cells; assay type: cell-based; conditions: Homo sapiens, NCI-H23, 24 h, 0–200 µM, read-out: IC50 ± SEM of NSCLC cells, H23
# Description: as §1
# [4] = tested on: DP cells; assay: MTT cell viability assay, normal dermal papilla (DP) cells; assay type: cell-based; conditions: 24 h
# Description: To confirm the selective cytotoxicity of resveratrol derivatives (RD2 and RD3) in cancer cells, resveratrol derivatives (RD2 and RD3) and resveratrol were determined for the cytotoxic profile in normal human cells, dermal papilla (DP).
# Cell viability was investigated by MTT colorimetric assay. All cell lines were cultured at the density of 1 × 10^4 cells per well in a 96-well tissue culture plate and incubated in an incubator. After that, cells were treated with various concentrations of RD1-RD5 for 24 h at 37 °C and analyzed by the MTT assay according to the manufacturer’s protocol (Sigma Chemical, St. Louis, MO, USA). In calculating the cell viability by a microplate reader (Anthros, Durham, NC, USA), the measured absorbance of treated cells were divided by the value of untreated cells and are reported as a percentage.
# [5] = tested on: p-Akt/Akt in A549 cells; assay: Western blot of p-Akt/Akt, A549 cells; assay type: cell-based, human; conditions: A549 cells, 100 μM, 12 h, vs untreated control
# Description: (§2) NSCLC cells (A549 and H23) were treated with RD2 and RD3 (10–100 μM) for 12 h. After which, all cells were collected and the expression levels of Akt, p-Akt, mTOR, and p-mTOR were investigated by Western blot analysis (Figure 5a, Figure 6a, Figure 7a and Figure 8a). […] Immunofluorescence staining of Akt, p-Akt, mTOR, and p-mTOR was performed in RD2 and RD3 treated cells. The results further confirm the effect of RD2 and RD3 on the Akt/mTOR pathway.
# (§3) Western blotting was used to detect the presence of specific protein. Cells were seed at a density of 4 × 10^5 cells/well in 6 well plates overnight. Cells were treated with various concentrations RD1-RD5 were treated for 12 h. After treatment, the apoptosis cells were collected by centrifuging media with 1500 rpm for 5 min and aspirating supernatants. Then, cells were washed with cold 1× PBS and incubated with 1X RIPPA 40 µL containing 10× RIPA buffer 100 µL, protease inhibitors (PI) 100 µL, PMSF 10 µL, and Triton × 10 µL for 30 min on ice. BCA protein assay kit from Pierce Biotechnology (Rockford, IL, USA) analyzed protein concentrations. The extracted proteins were separated by 7.5–10% sodium dodecyl sulfate polyacrylamide gel electrophoresis (SDS-PAGE) and transferred to polyvinylidene difluoride membrane (PVDF). Then, the membranes were blocked with 5% non-fat milk powder for 2 h. After that, they were incubated with primary antibody at 4 °C Akt (#9272), phosphorylated Akt (#4060), mTOR (#2983S), and p-mTOR (#5536S) overnight. The membranes were washed with Tris-buffered saline/Tween 20 3 times and incubated with secondary antibodies for 2 h. Finally, the protein bands were detected using chemiluminescence substrate and exposed by Chemiluminescent ImageQuant LAS4000. Protein bands were analyzed using Image J software.
# [6] = tested on: p-mTOR/mTOR in A549 cells; assay: Western blot of p-mTOR/mTOR, A549 cells; assay type: cell-based, human; conditions: 100 μM, 12 h, vs untreated control
# Description: as §2, §3
# [7] = tested on: p-Akt/Akt in H23 cells; assay: Western blot of p-Akt/Akt, H23 cells; assay type: cell-based, human; conditions: 100 μM, 12 h, vs untreated control
# Description: as §2, §3
# [8] = tested on: p-mTOR/mTOR in H23 cells; assay: Western blot of p-mTOR/mTOR, H23 cells; assay type: cell-based, human; conditions: 100 μM, 12 h, vs untreated control
# Description: as §2, §3
Structure (SMILES),IC50 [1],IC50 [2],IC50 [3],effect on cell viability percentages in DP cells ([4]; normal human dermal papilla cells),"IC50 ([4]; Human dermal papilla cell, 0–200 µM, read-out: IC50 ± SEM of DP cells)",p-Akt/Akt protein expression levels [5],p-mTOR/mTOR protein expression levels [6],p-Akt/Akt protein expression levels [7],p-mTOR/mTOR protein expression levels [8]
"COc1ccc(CCc2cc(OC)c(O)c(OC)c2)cc1O [RD4, 4-(3-hydroxy-4-methoxyphenethyl)-2,6-dimethoxyphenol]",113 ± 25.5 µM,122 ± 28.6 µM,109 ± 17.3 µM,–,–,–,–,–,–
"COc1cc(CCc2cc(OC)c(O)c(OC)c2)cc(OC)c1O [RD5, 4,4′-(ethane-1,2-diyl)bis(2,6-dimethoxyphenol)]",185 ± 58.7 µM,153 ± 59.6 µM,82.6 ± 13.1 µM,–,–,–,–,–,–
"Oc1ccc(C=Cc2cc(O)cc(O)c2)cc1 [Resveratrol, 3,5,4′-trihydroxystilbene]",> 200 µM,> 200 µM,> 200 µM,did not significantly affect,> 200 µM,significant decrease,significant decrease,significant decrease,significant decrease
